According to US11434242B2, “Dopamine-b-hydroxylase inhibitors” (BIAL-PORTELA & Cª, S.A., priority 2017, dated 2022):

Target: T1, Dopamine beta hydroxylase (Homo sapiens, UniProt P09172)
T1 construct: 125 μl of plasma; tissue Instituto Português do Sangue Transplantação; host or cells: human plasma from healthy donors
T1 sequence (P09172 40-617 limits assumed): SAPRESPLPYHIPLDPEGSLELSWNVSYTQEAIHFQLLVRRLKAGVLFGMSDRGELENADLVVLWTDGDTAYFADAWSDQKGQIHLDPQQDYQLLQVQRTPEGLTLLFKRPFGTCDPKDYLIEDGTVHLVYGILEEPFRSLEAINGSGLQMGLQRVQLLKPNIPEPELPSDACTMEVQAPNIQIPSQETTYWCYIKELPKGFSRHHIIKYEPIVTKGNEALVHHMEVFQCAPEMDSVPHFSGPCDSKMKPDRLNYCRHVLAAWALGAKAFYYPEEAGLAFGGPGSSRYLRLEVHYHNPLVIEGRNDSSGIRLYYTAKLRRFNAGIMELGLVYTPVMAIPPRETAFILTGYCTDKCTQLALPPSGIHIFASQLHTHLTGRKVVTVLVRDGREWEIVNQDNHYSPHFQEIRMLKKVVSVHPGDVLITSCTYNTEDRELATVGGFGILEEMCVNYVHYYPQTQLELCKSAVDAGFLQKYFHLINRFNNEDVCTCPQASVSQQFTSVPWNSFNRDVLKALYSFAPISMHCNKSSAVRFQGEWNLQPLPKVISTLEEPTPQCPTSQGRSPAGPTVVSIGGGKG
Assay: Dopamine beta hydroxylase activity in human plasma
Assay type: biochemical
Settings: for Plasma (0.1 μM), activity in % of control: inhibitor 0.1 μM; for Plasma (1 μM), activity in % of control: inhibitor 1 μM; for Plasma (0.01 μM), activity in % of control: inhibitor 0.01 μM
Experimental: Furthermore, the ability of a compound to inhibit DβH activity may be assessed in human plasma using the following assay. […]. Dopamine beta hydroxylase activity in human plasma was measured by the method of Nagatsu and Udenfriend (Nagatsu, T. and Udenfriend, S. “Photometric assay of dopamine-μ-hydroxylase activity in human blood.” Clin. Chem. 18(9) 980-983, 1972) with minor modifications. Catalase, N-ethylmaleimide, tyramine, disodium fumarate, pargyline, sodium acetate, ascorbic acid, copper sulfate and octopamine were obtained from Sigma Chemical Co., St. Louis, Mo. 63178. Human plasma samples were obtained from healthy donors (Instituto Português do Sangue Transplantação, Centro Sangue Transplantação, Porto, Portugal). From date of collection, plasma was stored at −80° C. until use. Test compounds were initially prepared in dimethyl sulfoxide at a concentration of 10 mM and diluted in dimethyl sulfoxide to the required concentrations. Test compounds were further diluted in ultrapure water to a concentration 20-fold to that of the final concentration to be tested. Final concentrations of test compounds were 10, 100 and 1000 nM. The various reagents used to make up the incubation buffer were premixed and consisted of the following components: sodium acetate buffer (1 M, pH 5.0, 18 ml), sodium fumarate (0.2 M, 4.5 ml), ascorbic acid (0.2 M, 4.5 ml, freshly prepared), pargyline (20 mM, freshly prepared, 4.5 ml), N-ethylmaleimide (0.2 M, 4.5 ml), catalase (10 000 U/ml, 9 ml), copper sulfate (20 μM, 4.5 ml) and 4.5 ultrapure water. The standard incubation mixture (total volume, 950 μl) contained: 50 μL of compound or vehicle (dimethyl sulfoxide 2%); 700 μL of incubation buffer; 125 μl of plasma (or saline for blank reaction or standard curve); 75 μl of saline. The reaction mixture was placed in water bath, shaking at 37° C. and pre-incubated for 10 minutes. Tyramine (0.5 M) was added and incubation proceeded for 45 minutes. The reaction contents were exposed to air. A sample of enzyme preparation (with 125 μl of plasma) that had been added perchloric acid 2 M at the end of the pre-incubation period was used as blank. A blank for each of the tested compounds was used. For octopamine standard curve, perchloric acid 2 M was replaced by increasing concentrations of octopamine prepared in perchloric acid 2 M (0.5, 1, 2.5, 5, 7.5, 10, 15, 20 μg/ml, final concentration). The incubation was stopped by adding 200 μl of 2 M molar perchloric acid, and the mixture was centrifuged at 9000 g for 5 min. The supernatant fluid (800 μL) was transferred to a column (SPE cartridge ISOLUTE SCX-3, 100 mg) and centrifuged at 150 g for 2 min. The column was washed two more times with 0.5 ml of ultrapure water by centrifuging at 150 g for 2 min. The adsorbed octopamine was eluted twice with 0.3 ml of 4 M ammonium hydroxide by centrifuging at 150 g for 2 min. Octopamine in the eluate was then converted to p-hydroxybenzaldehyde by adding 200 μl of sodium periodate (2%) and incubating for 6 min. Excess periodate was than reduced by adding 200 μl of sodium metabisulfite (10%). Absorbance was measured at […] in a 96-well plate by use of a SpectraMAX plus 384 (Molecular Devices) with software SOFTmax® PRO Software 5.3 spectrophotometer. Absorbance was linear with octopamine concentration from 0.5 to 20 μg/ml. Dopamine beta hydroxylase activity is determined as nmol of octopamine formed/ml of plasma/hour and effect of compounds is presented as % control.
Results are reported in the table below as activity in % of control at the inhibitor concentration tested.

Compound	Plasma (0.1 μM), activity in % of control	Plasma (1 μM), activity in % of control	Plasma (0.01 μM), activity in % of control
CC(C)NC(=O)Cc1[nH]c(=S)n2c1[C@@H]1C[C@]1(c1cc(Cl)ccc1F)C2 [Example 67, 2-((5aS,6aR)-5a-(5-chloro-2-fluorophenyl)-3-thioxo-2,3,5,5a,6,6a-hexahydrocyclopropa[3,4]pyrrolo[1,2-c]imidazol-1-yl)-N-isopropylacetamide]	76.1 % of control	13.2 % of control	
O=C(Cc1[nH]c(=S)n2c1C[C@@H](c1c(F)ccc(Br)c1F)C2)NCc1cccnc1 [Example 124, (S)-2-(6-(3-bromo-2,6-difluorophenyl)-3-thioxo-2,5,6,7-tetrahydro-3H-pyrrolo[1,2-c]imidazol-1-yl)-N-(pyridin-3-ylmethyl)acetamide]	3.3 % of control		42.8 % of control
Cn1c(CC(=O)NC2CC2)c2n(c1=S)C[C@@]1(c3cc(Br)ccc3F)C[C@@H]21 [Example 357, 2-((5aS,6aR)-5a-(5-bromo-2-fluorophenyl)-2-methyl-3-thioxo-2,3,5,5a,6,6a-hexahydrocyclopropa[3,4]pyrrolo[1,2-c]imidazol-1-yl)-N-cyclopropylacetamide]	15.1 % of control		62.1 % of control
O=C(Cc1[nH]c(=S)n2c1C[C@@H](c1c(F)ccc(Cl)c1F)C2)N[C@@H]1CCOC1 [Example 362, 2-((S)-6-(3-chloro-2,6-difluorophenyl)-3-thioxo-2,5,6,7-tetrahydro-3H-pyrrolo[1,2-c]imidazol-1-yl)-N—((R)-tetrahydrofuran-3-yl)acetamide]	11.8 % of control		43.2 % of control
Cl.Cn1c(CC(=O)Nc2ccncc2)c2n(c1=S)C[C@H](c1c(F)ccc(Cl)c1F)C2 [Example 287, (S)-2-(6-(3-chloro-2,6-difluorophenyl)-2-methyl-3-thioxo-2,5,6,7-tetrahydro-3H-pyrrolo[1,2-c]imidazol-1-yl)-N-(pyridin-4-yl)acetamide Hydrochloride]	15.5 % of control		66.8 % of control
Cn1c(CC(=O)NC2COC2)c2n(c1=S)C[C@@H](c1c(F)ccc(F)c1F)C2 [Example 414, (R)-2-(2-methyl-3-thioxo-6-(2,3,6-trifluorophenyl)-2,5,6,7-tetrahydro-3H-pyrrolo[1,2-c]imidazol-1-yl)-N-(oxetan-3-yl)acetamide]	49.0 % of control		95.4 % of control
Cn1c(CC(=O)N[C@@H]2CCOC2)c2n(c1=S)C[C@@H](c1c(F)cccc1F)C2 [Example 446, 2-((R)-6-(2,6-difluorophenyl)-2-methyl-3-thioxo-2,5,6,7-tetrahydro-3H-pyrrolo[1,2-c]imidazol-1-yl)-N—((R)-tetrahydrofuran-3-yl)acetamide]	62.9 % of control		83.0 % of control
Cl.Fc1ccc(Br)cc1[C@]12C[C@H]1c1c(CCNCC3CC3)[nH]c(=S)n1C2 [Example 186, (5aS,6aR)-5a-(5-bromo-2-fluorophenyl)-1-(2-((cyclopropylmethyl)amino)ethyl)-5,5a,6,6a-tetrahydrocyclopropa[3,4]pyrrolo[1,2-c]imidazole-3(2H)-thione hydrochloride]	18.0 % of control		62.7 % of control
CN1CCN(C(=O)Cc2c3n(c(=S)n2C)C[C@@]2(c4cc(Cl)ccc4F)C[C@@H]32)CC1 [Example 326, 2-((5aS,6aR)-5a-(5-chloro-2-fluorophenyl)-2-methyl-3-thioxo-2,3,5,5a,6,6a-hexahydrocyclopropa[3,4]pyrrolo[1,2-c]imidazol-1-yl)-1-(4-methylpiperazin-1-yl)ethan-1-one]	59.5 % of control		96.6 % of control
CS(=O)(=O)CCNC(=O)Cc1[nH]c(=S)n2c1C[C@@H](c1c(F)ccc(Cl)c1F)C2 [Example 114, (S)-2-(6-(3-chloro-2,6-difluorophenyl)-3-thioxo-2,5,6,7-tetrahydro-3H-pyrrolo[1,2-c]imidazol-1-yl)-N-(2-(methylsulfonyl)ethyl)acetamide]	7.5 % of control		58.4 % of control
O=C(Cc1[nH]c(=S)n2c1C[C@H](c1c(F)c(F)cc(F)c1F)C2)N1CCCC1 [Example 104, (R)-1-(pyrrolidin-1-yl)-2-(6-(2,3,5,6-tetrafluorophenyl)-3-thioxo-2,5,6,7-tetrahydro-3H-pyrrolo[1,2-c]imidazol-1-yl)ethan-1-one]	67.9 % of control	19.5 % of control	
Cn1c(CC(=O)NC2CCCCC2)c2n(c1=S)C[C@@]1(c3cc(Br)ccc3F)C[C@@H]21 [Example 294, 2-((5aS,6aR)-5a-(5-bromo-2-fluorophenyl)-2-methyl-3-thioxo-2,3,5,5a,6,6a-hexahydrocyclopropa[3,4]pyrrolo[1,2-c]imidazol-1-yl)-N-cyclohexylacetamide]	1.7 % of control		39.7 % of control
CN(C(=O)Cc1c2n(c(=S)n1C)C[C@@]1(c3cc(Br)ccc3F)C[C@@H]21)C1COC1 [Example 438, 2-((5aS,6aR)-5a-(5-bromo-2-fluorophenyl)-2-methyl-3-thioxo-2,3,5,5a,6,6a-hexahydrocyclopropa[3,4]pyrrolo[1,2-c]imidazol-1-yl)-N-methyl-N-(oxetan-3-yl)acetamide]	7.5 % of control		64.0 % of control
Cn1c(CC(=O)O)c2n(c1=S)C[C@@H](c1c(F)c(F)cc(F)c1F)C2 [Example 229, (R)-2-(2-methyl-6-(2,3,5,6-tetrafluorophenyl)-3-thioxo-3,5,6,7-tetrahydro-2H-pyrrolo[1,2-c]imidazol-1-yl)acetic Acid]	38.3 % of control		84.3 % of control
O=C(Cc1[nH]c(=S)n2c1C[C@@H](c1c(F)ccc(Br)c1F)C2)N[C@@H]1CCOC1 [Example 90, 2-((S)-6-(3-bromo-2,6-difluorophenyl)-3-thioxo-2,5,6,7-tetrahydro-3H-pyrrolo[1,2-c]imidazol-1-yl)-N—((R)-tetrahydrofuran-3-yl)acetamide]	9.9 % of control	0.4 % of control	
CN(Cc1cccnc1)C(=O)Cc1[nH]c(=S)n2c1C[C@@H](c1c(F)ccc(Cl)c1F)C2 [Example 134, (S)-2-(6-(3-chloro-2,6-difluorophenyl)-3-thioxo-2,5,6,7-tetrahydro-3H-pyrrolo[1,2-c]imidazol-1-yl)-N-methyl-N-(pyridin-3-ylmethyl)acetamide]	3.2 % of control		24.9 % of control
